Experimental findings from PubChem BioAssay (NCI) are described below.

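Exposure lasted 48 hours, with cells grown in 96-well plates and compounds tested at five concentrations. TGI marks complete inhibition of growth.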

Among the test systems are 786-0 renal; BT-549 breast; CAKI-1 renal; CCRF-CEM leukemia; COLO 205 colon; DU-145 prostate; IGROV1 ovarian; KM12 colon; MALME-3M melanoma; MOLT-4 leukemia; NCI-H226 lung; PC-3 prostate; RXF 393 renal; SF-268 CNS; SK-MEL-28 melanoma; TK-10 renal; U251 CNS; UACC-257 melanoma; UO-31 renal.
Common to all, as to assay: NCI tumour cell line growth inhibition, 48 h

Regarding `O=C(NC(Cc1c[nH]c2ccccc12)C(=O)Nc1ccc(Br)cc1)OCc1ccccc1` (stereo not drawn), the TGI in the assay on 786-0 renal was 25.2 µM; in the assay with BT-549 breast, 29.8 µM; in the assay on CAKI-1 renal, 34.6 µM; with CCRF-CEM leukemia, 36 µM; in the assay on COLO 205 colon, 24.7 µM; in the assay with DU-145 prostate, 29.2 µM. For the same compound, the TGI in the assay on IGROV1 ovarian was 27.6 µM; in the assay with KM12 colon, 21.7 µM; in the assay with MALME-3M melanoma, 34.1 µM; with MOLT-4 leukemia, 38.9 µM; in the assay with NCI-H226 lung, 31.4 µM; in the assay on PC-3 prostate, 24.5 µM. Further, the TGI with RXF 393 renal worked out at 22.2 µM; with SF-268 CNS it was 37.7 µM; in the assay with SK-MEL-28 melanoma it was 30.5 µM; in the assay with TK-10 renal, 52.8 µM; in the assay with U251 CNS, 25.1 µM; in the assay on UACC-257 melanoma, 23.5 µM. For the same compound, the TGI in the assay with UO-31 renal amounted to 27.4 µM.

For the compound `CC1(C)COC(c2cccnc2/C=N/O)=N1`, the TGI with 786-0 renal, in the assay on CAKI-1 renal, in the assay on CCRF-CEM leukemia, in the assay with COLO 205 colon, with IGROV1 ovarian and with KM12 colon was above 100 µM in each case. For the same compound, the TGI with MALME-3M melanoma, in the assay on MOLT-4 leukemia, in the assay with NCI-H226 lung, with RXF 393 renal, in the assay with SF-268 CNS and with SK-MEL-28 melanoma was above 100 µM throughout. Moreover, the TGI in the assay on TK-10 renal, with U251 CNS, with UACC-257 melanoma and in the assay with UO-31 renal was above 100 µM throughout.

For `O=C1C(Cl)N(c2ccc(Cl)cc2)C1c1c[nH]c2ccccc12` (stereo not drawn), the TGI with CCRF-CEM leukemia was above 100 µM; in the assay on COLO 205 colon it was 47.8 µM; in the assay on IGROV1 ovarian, 62.6 µM; in the assay on KM12 colon, above 100 µM; in the assay on MALME-3M melanoma, 25.6 µM; with MOLT-4 leukemia, 70 µM. In addition, the TGI is 42.1 µM in the assay with RXF 393 renal; above 100 µM in the assay with SF-268 CNS; 96.5 µM in the assay with SK-MEL-28 melanoma; 34.8 µM in the assay on TK-10 renal; 25.7 µM in the assay on U251 CNS; 31.6 µM in the assay with UACC-257 melanoma. For the same compound, the TGI in the assay on UO-31 renal worked out at 35 µM.

As for `COc1ccc(C2C(Cl)C(=O)N2n2cnc3ccccc3c2=O)cc1` (stereo not drawn), the TGI in the assay on 786-0 renal, in the assay on CAKI-1 renal, in the assay on COLO 205 colon, in the assay with IGROV1 ovarian, in the assay with KM12 colon and in the assay on MALME-3M melanoma was above 100 µM each time. Further, the TGI in the assay on MOLT-4 leukemia, in the assay on NCI-H226 lung, in the assay on RXF 393 renal, with SF-268 CNS, in the assay on SK-MEL-28 melanoma and in the assay with TK-10 renal was above 100 µM in each case. Further, the TGI in the assay with U251 CNS, in the assay with UACC-257 melanoma and in the assay on UO-31 renal was above 100 µM in each case.

With `O=c1[nH]c2c(nc1NC13CC4CC(CC(C4)C1)C3)c(=O)oc1ccccc12`, the TGI with 786-0 renal was above 100 µM; in the assay with CAKI-1 renal, 46 µM; in the assay on CCRF-CEM leukemia, above 100 µM; with COLO 205 colon, above 100 µM; with IGROV1 ovarian it was above 100 µM; in the assay with KM12 colon, above 100 µM. In addition, the TGI was above 100 µM in the assay on MALME-3M melanoma; above 100 µM in the assay on MOLT-4 leukemia; 85.6 µM in the assay on NCI-H226 lung; above 100 µM in the assay with RXF 393 renal; above 100 µM in the assay on SF-268 CNS; above 100 µM in the assay with SK-MEL-28 melanoma. Further, the TGI was above 100 µM in the assay with TK-10 renal, 33.1 µM with U251 CNS, above 100 µM in the assay with UACC-257 melanoma and above 100 µM in the assay with UO-31 renal.

As for `CCOC(=O)C1(C#N)C(c2ccccc2)CC(O)(c2ccc(OC)cc2)C(C(=O)c2ccc(OC)cc2)C1c1ccccc1` (stereo not drawn), the TGI in the assay with 786-0 renal, with CAKI-1 renal, in the assay with CCRF-CEM leukemia, with COLO 205 colon, with IGROV1 ovarian and in the assay with KM12 colon was above 100 µM throughout. Moreover, the TGI in the assay on MALME-3M melanoma, with MOLT-4 leukemia, in the assay on NCI-H226 lung, with RXF 393 renal, in the assay on SF-268 CNS and in the assay with SK-MEL-28 melanoma was above 100 µM throughout. Besides, the TGI in the assay with TK-10 renal, with U251 CNS, with UACC-257 melanoma and in the assay on UO-31 renal was above 100 µM each time.

For `COC(=O)c1cc2c3c(ccc2[nH]1)N(C(=O)c1cc2cc(OC)c(OC)c(OC)c2[nH]1)CC3CCl` (stereo not drawn), the TGI was above 52.6 µM with 786-0 renal; above 100 µM in the assay with BT-549 breast; above 100 µM in the assay with CAKI-1 renal; above 100 µM in the assay on CCRF-CEM leukemia; above 20.9 µM in the assay with COLO 205 colon; above 84.6 µM in the assay with DU-145 prostate. The TGI was above 100 µM with IGROV1 ovarian; above 100 µM with KM12 colon; above 100 µM in the assay on MALME-3M melanoma; above 100 µM in the assay with MOLT-4 leukemia; above 75 µM in the assay with NCI-H226 lung; above 100 µM in the assay with PC-3 prostate. The TGI with RXF 393 renal, with SF-268 CNS, with SK-MEL-28 melanoma, in the assay with TK-10 renal, in the assay on U251 CNS and in the assay on UACC-257 melanoma was above 100 µM in each case. The TGI in the assay with UO-31 renal is above 100 µM.

In the case of `Cc1cc(N)c(C)c2c1[nH]c1ccc(O)cc12`, the TGI in the assay with 786-0 renal was above 100 µM; in the assay with CAKI-1 renal, above 100 µM; in the assay on CCRF-CEM leukemia, 91.5 µM; in the assay with COLO 205 colon, above 100 µM; in the assay on KM12 colon it was above 100 µM; in the assay with MALME-3M melanoma, above 100 µM. In addition, the TGI with MOLT-4 leukemia, with NCI-H226 lung, in the assay with SF-268 CNS, in the assay with SK-MEL-28 melanoma, in the assay with TK-10 renal and in the assay on U251 CNS was above 100 µM each time. Also, the TGI in the assay with UACC-257 melanoma and in the assay on UO-31 renal was above 100 µM in each case.
